These results are taken from patent publication US5744471A, “Pyridazion quinoline compounds” (Zeneca Limited, priority 1993, dated 1998).

pIC50: −log10 of the molar value. Counter-ions that a name gives are not always drawn. Like-named read-outs stand apart in the source and are kept apart here.

The target of experiment [1] is T1, glycine receptor of the NMDA receptor complex (Rattus norvegicus, UniProt P35439).
T1 construct: Freshly dissected cortices and hippocampi are homogenized in 0.32 M sucrose; from tissue; host or cells: rat cerebral cortex and hippocampus, synaptic membranes (male Sprague-Dawley)
Kind of experiment: [3H]-glycine binding assay (Test A; in-vitro glycine receptor assay). Set-up: species or system rat (male Sprague-Dawley). The method, then:
The actions of compounds according to the invention as antagonists at the giycine receptor of the NMDA receptor complex can be shown by one or more standard tests such as the [^3 H]-glycine binding assay (Test A) and by tests in vivo such as ischemia induced by carotid occlusion in the gerbil model (Test B). In addition to these tests, compounds of the invention are assayed in the red nucleus test (Test C) and in the Rat Middle Cerebral Artery test (Test D). These tests confirm that compounds of the invention are NMDA receptor antagonists in vitro and in vivo.
In the [^3 H]-glycine binding assay, neuronal synaptic membranes are prepared from adult (about 250 g) male Sprague-Dawley rats. Freshly dissected cortices and hippocampi are homogenized in 0.32 M sucrose (110 mg/mL). Synaptosomes are isolated by centrifugation (1000 xg, 10 min), the supernatant is pelleted (20,000 xg, 20 min) and resuspended in double-distilled water. The suspension was centrifuged for 20 minutes at 8,000 xg. The resulting supernatant and buffy coat are washed twice (48,000 xg, 10 mins, resuspension in double-deionized water). The final pellet is quickly frozen (dry ice/ethanol bath) under double-deionized water and stored at -70° C.
On the day of the experiment, thawed synaptic membranes are homogenized with a Brinkmann Polytron (tm, Brinkmann Instruments, Westbury, N.Y.) tissue homogenizer in 50 millimolar tris(hydroxymethyl)aminomethane citrate, pH 7.1. The membranes are incubated with 0.04% Sufact-AMPS X100 (tm, Pierce, Rockford, Ill.) in buffer for 20 minutes at 37° C. and washed six times by centrifugation (48,000 xg, 10 min) and resuspended in buffer. The final pellet is homogenized at 200 mg wet weight/mL of the buffer for the binding assay.
For [^3 H]-glycine binding at the N-methyl-D-aspartate receptor, 20 nanomolar [^3 H]-glycine (40-60 Ci/mmol, New England Nuclear, Boston, Mass.) is incubated with the membranes suspended in 50 millimolar tris (hydroxymethyl)aminomethane citrate, pH 7.1 for 30 minutes at 4° C. Glycine, 1 millimolar, is used to define the nonspecific binding. Bound [^3 H]-glycine is isolated from free using a Brandel (Biomedical Research and Development Laboratories, Gaithersburg, Md.) cell harvester for vacuum filtration over glass fiber filters (Whatman GF/B from Brandel, Gaithersburg, Md.) presoaked in 0.025% polyethylenimine. The samples retained on the glass fiber filters are rinsed 3 times with a total of 2.5 mL ice cold buffer. Radioactivity is estimated by liquid scintillation counting. IC50 values are obtained from a least-squares regression of a logit-log transformation of the data. […] The other examples disclosed herein are glycine antagonists.

Experiment [2] relates to NMDA-induced excitatory response of red nucleus cells. Kind of experiment: Red Nucleus Test (Test C). The note with it: Rattus norvegicus, iv, read-out: ID50 (NMDA-induced excitatory response of red nucleus cells). Type of experiment: in vivo. The protocol:
The purpose of this test is to determine the effects of intravenously administered glycine antagonists on the NMDA-induced excitatory response of red nucleus cells.
The procedure for the red nucleus test is as follows. Rats are anesthetized with chloral hydrate (400 mg/kg ip) and the femoral vein is catheterized for iv drug administration. Five-barrel micropipettes are stereotaxically positioned in the red nucleus. Typically, three to four of the five barrels are filled as follows: the recording barrel with 2M potassium citrate, the current balancing barrel with 4M NaCl, the drug barrel with 25 mM NMDA, and another drug barrel with 2.5 mM quisqualic acid (QA is only used in selectivity studies). NHDA is iontophoretically applied with an ejection current that is adjusted depending on the sensitivity of each individual red nucleus cell. The NMDA is cycled on and off (usually 30-60 sec. on and 60-120 sec. off) and the firing rate of the cell during each period is recorded. Once the baseline firing rate of the cell has been established, the test drug is administered iv. The effect of the drug on the NMDA-induced excitatory response of the red nucleus cell can be both qualitatively and quantitatively evaluated from the recordings and the raw data accumulated.

In experiment [3] the test system is neuronal damage in the hippocampus. Briefly: gerbil ischemic model, bilateral carotid occlusion (Test B). Type of experiment: in vivo, Mongolian gerbils. The following applies: 10 mg/Kg ip, 45 minutes before and 5 minutes after occlusion. The protocol: When testing in vivo using the gerbil ischemic model, adult female Mongolian gerbils (50-70 g) are anesthetized with 2 to 3% halothane. The bilateral common carotid arteries at the neck are exposed and occluded with microaneurysm clips. After 10 min (unless specified), the clips are removed and the blood flow through the carotid arteries is restored and the skin is sutured. Test compounds are administered intraperitoneally both pre- and post-occlusion, for example 45 minutes before and 5 minutes after occlusion of the carotid arteries. Sham-operated animals are treated in the same manner except that the arteries are not clamped. Gross behavioral observations along with motor activity are recorded for 2 hr on the first (24 hr) day following the occlusion. After 4 days, subjects are sacrificed (decapitation), brains are removed, fixed, sectioned and stained with hematoxylin/eosin and cresyl violet.
The brain sections are rated for neuronal damage in the hippocampus using the following rating scale:
1=slight damage (up to 25%)--restricted to CAI/subiculum border
2=moderate damage (up to 50%)--obvious damage, restricted to less than half of CA1 field […]
Sections (7 micron) are evaluated from each brain. […] The average brain damage rating score for each group is recorded, and the damage scores of the drug treated group are compared to the vehicle-treated group using Wilcoxon-Rank Sum test.

Setting [4] is: read-out: IC50 in the [3H]Gly test.
Setting [5] is: 20 nanomolar [3H]-glycine, rat synaptic membranes, pH 7.1, 4° C., read-out: IC50 in the [3H]-glycine binding assay.

Turning to `O=C(NCCn1nc(O)c2[nH]c3cc(Cl)ccc3c(=O)c2c1=O)c1ccccc1` [2-ethylbenzamidederivative], the “glycine receptor antagonist activity” value in experiment [1] (result in words) is recorded as “active as a glycine receptor antagonist”.

On to `CC(=O)OCCn1nc(O)c2c(=O)c3ccc(Cl)cc3[nH]c2c1=O` [3-(2-Acetoxyethyl), 3-(2-Acetoxyethyl)7-chloro-4-hydroxy-1,2,5,10-tetrahydropyridazino[4,5-]quinoline-1,10-dione], for which the negative logarithm of the IC50 (pIC50) in experiment [1] (setting [4]) is below 4.00. Consider `C/C(=C\C(N)C(=O)O)CP(=O)(O)O` (stereo not shown) [CGP 37849], for which the ED50 in experiment [2] was found to be 1.7 mg/kg. On to `O=c1c2ccc(Cl)cc2[nH]c2c(=O)n(CCO)nc(O)c12` [Example 1, 7-Chloro-1-hydroxy-3-(2-hydroxyethyl)-3,4,5,10-tetrahydropyridazino[4,5-b]quinoline-4,10-dione], for which, in experiment [1] (setting [5]), the pIC50 was 4.40. In the case of `O=C1c2ccccc2C(=O)N1CCn1nc(O)c2[nH]c3cc(Cl)ccc3c(=O)c2c1=O` [Example 4, 7-Chloro-4-hydroxy-2-(2-phthalimidoethyl)-1,2,5,10-tetrahydropyridazino[4,5-b]quinoline-1,10-dione], the “neuroprotection (relative to sham-operated control)” value in experiment [3] stood at 35%. On to `O=c1c2ccc(Cl)cc2[nH]c2c(=O)n(-c3ccccc3)nc(O)c12` [Example 5, 7-Chloro-1-hydroxy-3-phenyl-3,4,5,10-tetrahydropyridazino[4,5-b]-quinoline-4,10-dione, choline salt], for which, in experiment [1] (result in words), the “activity in the in-vitro glycine receptor assay” value was “inactive”. For the compound `COc1ccc(-n2nc(O)c3c(=O)c4ccc(Cl)cc4[nH]c3c2=O)cc1` [Example 7, 7-Chloro-1-hydroxy-3-(4-methoxyphenyl)-3,4,5,10-tetrahydropyridazino[4,5-b]quinoline-4,10-dione], the pIC50 in experiment [1] (setting [4]) is below 4.00. For the same compound, in experiment [1] (result in words), the “activity in the in-vitro glycine receptor assay” value is “inactive”. As to `O=c1c2ccc(Cl)cc2[nH]c2c(=O)n(-c3ccc(O)cc3)nc(O)c12` [Example 9, 7-Chloro-1-hy droxy-3-(4-hydroxyphenyl)-3,4,5,10-tetrahydropyridazino[4,5-b]quinoline-4,10-dione], the pIC50 in experiment [1] (setting [4]) was below 4.00. Besides, the “activity in the in-vitro glycine receptor assay” value in experiment [1] (result in words) was “inactive”. `O=c1c2ccc(Cl)cc2[nH]c2c(O)nn(-c3ccc(O)cc3)c(=O)c12` [Example 10, 7-Chloro-4-hydroxy-2-(4-hydroxyphenyl)-1,2,5,10-tetrahydropyridazino[4,5-b]quinoline-1,10-dione]: in experiment [3], the “neuroprotection (relative to sham-operated control)” value is on record as “over 80%”. Moreover, in experiment [1] (setting [5]), the pIC50 is 6.92. `O=c1c2ccc(Cl)cc2[nH]c2c(=O)n(-c3ccc(Cl)cc3)nc(O)c12` [Example 16, 7-Chloro-1-hydroxy-3-(4-chlorophenyl)-3,4,5,10-tetrahydropyridazino[4,5-b]quinoline-4,10-dione]: the “activity in the in-vitro glycine receptor assay” value in experiment [1] (result in words) was “inactive”. Regarding `Cc1ccc(-n2nc(O)c3c(=O)c4ccc(Cl)cc4[nH]c3c2=O)cc1` [Example 18, 7-Chloro-1-hydroxy-3-(4-methylphenyl)-3,4,5,10-tetrahydropyridazino[4,5-b]quinoline-4,10-dione], in experiment [1] (result in words), the “activity in the in-vitro glycine receptor assay” value was “inactive”.

For `CC(C)c1ccc(-n2nc(O)c3c(=O)c4ccc(Cl)cc4[nH]c3c2=O)cc1` [Example 20, 7-Chloro-1-hydroxy-3-(4-isopropylphenyl)-3,4,5,10-tetrahydropyridazino[4,5- ]-quinoline-4,10-dione], in experiment [1] (result in words), the “activity in the in-vitro glycine receptor assay” value is “inactive”. As to `NC1CCN(O)C1=O` (stereo not shown) [HA-966], the ED50 in experiment [2] (reference agents) stood at 7.9 mg/kg.
